Measured values: patent publication CN115504972A, “异恶唑类衍生物、其制备方法及其作为药物的用途” (Guangdong Pharmaceutical University, priority 2021, dated 2022)

How the values were obtained:
[1] = tested on: non-alcoholic fatty liver disease (非酒精性脂肪性肝病(NAFLD)); conditions: phase IIa clinical study; cited from earlier work
[2] = clinical studies; cited from earlier work
[3] = tested on: non-alcoholic hepatitis (非酒精性肝炎(NASH)); conditions: phase IIb study, 72 weeks of treatment; cited from earlier work
FXR receptor (FXR受体) = target: T1, FXR receptor (FXR受体) (Homo sapiens, UniProt Q96RI1); conditions: cited from earlier work
T1 sequence (Q96RI1 1-486): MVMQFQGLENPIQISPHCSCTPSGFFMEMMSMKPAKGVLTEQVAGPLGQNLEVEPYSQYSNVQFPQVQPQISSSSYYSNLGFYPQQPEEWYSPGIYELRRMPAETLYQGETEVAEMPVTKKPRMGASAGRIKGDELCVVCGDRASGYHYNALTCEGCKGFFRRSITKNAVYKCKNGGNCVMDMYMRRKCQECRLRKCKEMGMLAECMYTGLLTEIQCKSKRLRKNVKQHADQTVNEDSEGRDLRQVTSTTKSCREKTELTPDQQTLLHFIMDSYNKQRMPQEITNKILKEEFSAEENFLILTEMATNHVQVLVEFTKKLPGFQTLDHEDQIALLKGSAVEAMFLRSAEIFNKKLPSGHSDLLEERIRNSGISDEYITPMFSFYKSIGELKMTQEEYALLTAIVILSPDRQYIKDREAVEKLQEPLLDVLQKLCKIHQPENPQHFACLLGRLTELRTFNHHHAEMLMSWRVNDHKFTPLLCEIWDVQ

[4] = phase III clinical study; cited from earlier work
[5] = tested on: non-alcoholic fatty liver model mice (非酒精性脂肪肝模型小鼠); experiment: Improvement of non-alcoholic fatty liver in NASH model mice (Western diet + CCl4), HE staining of liver; format: in vivo, C57BL/6 mouse; conditions: 10 mg/kg, gavage, once daily, 4 weeks; compared with obeticholic acid 20 mg/kg

SMILES	insulin sensitivity [1]	other metabolic effects [1]	side effects [2]	histopathology of NASH [3]	FXR receptor agonist activity compared with the endogenous ligand CDCA (FXR receptor (FXR受体))	liver fibrosis, histological features of steatohepatitis and liver biochemical indicators [4]	ballooning [5]	degree of hepatic steatosis [5]	improvement of non-alcoholic fatty liver [5]	inflammatory infiltration [5]
CC[C@H]1[C@@H](O)[C@@H]2[C@H](CC[C@]3(C)[C@@H]([C@H](C)CCC(=O)O)CC[C@@H]23)[C@@]2(C)CC[C@@H](O)C[C@@H]12 [奥贝胆酸]	有显著改善	有益作用	严重的瘙痒、肝毒性、心血管风险等副作用	对非酒精性肝炎(NASH)的组织病理学的改进也有益	比内源性配体CDCA活性更高	可以改善肝纤维化、脂肪性肝炎的组织学特征以及肝脏的生化指标				
CC(C)c1onc(-c2ccccc2OC(F)(F)F)c1CN1CCC(COc2ccc(C(=O)O)cc2)CC1 [I-9, 4-(1-(5-异丙基-3-(2-三氟甲氧基苯基)异恶唑-4-甲基)哌啶-4-甲氧基)苯甲酸]							得到更明显的改善	得到更明显的改善	明显优于奥贝胆酸	得到更明显的改善
